According to ChEMBL document CHEMBL4425121, “Discovery of Substituted 1H-Pyrazolo[3,4-b]pyridine Derivatives as Potent and Selective FGFR Kinase Inhibitors” (ACS Med Chem Lett, 2016):

Target: Fibroblast growth factor receptor 1 (Homo sapiens, UniProt P11362)
Experiment: Inhibition of recombinant human FGFR1 using poly (Glu,Tyr)4:1 as substrate incubated for 60 mins by ELISA
Details: not given

Sequence of Fibroblast growth factor receptor 1 (P11362 whole entry): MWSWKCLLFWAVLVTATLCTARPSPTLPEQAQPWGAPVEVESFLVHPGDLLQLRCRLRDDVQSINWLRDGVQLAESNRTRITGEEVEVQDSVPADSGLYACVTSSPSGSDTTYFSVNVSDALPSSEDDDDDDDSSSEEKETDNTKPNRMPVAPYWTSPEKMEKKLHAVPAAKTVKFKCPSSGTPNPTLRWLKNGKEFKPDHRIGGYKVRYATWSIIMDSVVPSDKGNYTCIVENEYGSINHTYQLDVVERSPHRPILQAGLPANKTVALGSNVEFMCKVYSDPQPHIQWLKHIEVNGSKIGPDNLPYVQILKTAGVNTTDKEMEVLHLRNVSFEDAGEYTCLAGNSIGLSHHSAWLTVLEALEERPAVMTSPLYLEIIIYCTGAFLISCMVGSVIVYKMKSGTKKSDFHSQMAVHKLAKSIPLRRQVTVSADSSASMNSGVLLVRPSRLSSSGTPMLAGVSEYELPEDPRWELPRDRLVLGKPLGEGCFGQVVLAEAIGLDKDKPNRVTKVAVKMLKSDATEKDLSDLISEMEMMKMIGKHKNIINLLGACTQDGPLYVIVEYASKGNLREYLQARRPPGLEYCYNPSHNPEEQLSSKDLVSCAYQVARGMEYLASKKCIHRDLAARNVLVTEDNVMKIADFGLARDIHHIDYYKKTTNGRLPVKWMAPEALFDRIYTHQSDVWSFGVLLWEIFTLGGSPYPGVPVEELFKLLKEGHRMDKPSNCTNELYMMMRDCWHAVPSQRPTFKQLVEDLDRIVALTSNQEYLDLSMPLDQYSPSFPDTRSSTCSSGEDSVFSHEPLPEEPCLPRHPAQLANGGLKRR

IC50 [nM]	SMILES
14.5	COc1cc(OC)c(Cl)c(-c2ccc3c(NC(=O)c4ccc(N5CCN(C)CC5)c(Cl)c4)n[nH]c3n2)c1Cl
0.3	COc1cc(OC)c(Cl)c(-c2ccc3c(NC(=O)c4ccc(N5CCN(C)CC5)cc4)n[nH]c3n2)c1Cl
74.4	COc1cc(N2CCN(C)CC2)ccc1C(=O)Nc1n[nH]c2nc(-c3c(Cl)c(OC)cc(OC)c3Cl)ccc12
0.2	COc1cc(OC)c(Cl)c(-c2ccc3c(NC(=O)c4ccc(N5CCN(S(C)(=O)=O)CC5)cc4)n[nH]c3n2)c1Cl

The remaining lines, values behind:

SMILES	IC50 [nM]
COc1cc(OC)c(Cl)c(-c2ccc3c(NC(=O)c4ccc(N5CCN(C)CC5)nc4)n[nH]c3n2)c1Cl	6.2
COc1cc(OC)c(Cl)c(-c2ccc3c(NC(=O)c4ccc(N5CCN(C)CC5)s4)n[nH]c3n2)c1Cl	4.1
COc1cc(OC)c(Cl)c(-c2ccc3c(NC(=O)c4ccccc4)n[nH]c3n2)c1Cl	42.4
CCN1CCN(c2ccc(C(=O)Nc3n[nH]c4nc(-c5c(Cl)c(OC)cc(OC)c5Cl)ccc34)cc2)CC1	0.5

Target: Vascular endothelial growth factor receptor 2 (Homo sapiens, UniProt P35968)
Sequence (P35968 whole entry): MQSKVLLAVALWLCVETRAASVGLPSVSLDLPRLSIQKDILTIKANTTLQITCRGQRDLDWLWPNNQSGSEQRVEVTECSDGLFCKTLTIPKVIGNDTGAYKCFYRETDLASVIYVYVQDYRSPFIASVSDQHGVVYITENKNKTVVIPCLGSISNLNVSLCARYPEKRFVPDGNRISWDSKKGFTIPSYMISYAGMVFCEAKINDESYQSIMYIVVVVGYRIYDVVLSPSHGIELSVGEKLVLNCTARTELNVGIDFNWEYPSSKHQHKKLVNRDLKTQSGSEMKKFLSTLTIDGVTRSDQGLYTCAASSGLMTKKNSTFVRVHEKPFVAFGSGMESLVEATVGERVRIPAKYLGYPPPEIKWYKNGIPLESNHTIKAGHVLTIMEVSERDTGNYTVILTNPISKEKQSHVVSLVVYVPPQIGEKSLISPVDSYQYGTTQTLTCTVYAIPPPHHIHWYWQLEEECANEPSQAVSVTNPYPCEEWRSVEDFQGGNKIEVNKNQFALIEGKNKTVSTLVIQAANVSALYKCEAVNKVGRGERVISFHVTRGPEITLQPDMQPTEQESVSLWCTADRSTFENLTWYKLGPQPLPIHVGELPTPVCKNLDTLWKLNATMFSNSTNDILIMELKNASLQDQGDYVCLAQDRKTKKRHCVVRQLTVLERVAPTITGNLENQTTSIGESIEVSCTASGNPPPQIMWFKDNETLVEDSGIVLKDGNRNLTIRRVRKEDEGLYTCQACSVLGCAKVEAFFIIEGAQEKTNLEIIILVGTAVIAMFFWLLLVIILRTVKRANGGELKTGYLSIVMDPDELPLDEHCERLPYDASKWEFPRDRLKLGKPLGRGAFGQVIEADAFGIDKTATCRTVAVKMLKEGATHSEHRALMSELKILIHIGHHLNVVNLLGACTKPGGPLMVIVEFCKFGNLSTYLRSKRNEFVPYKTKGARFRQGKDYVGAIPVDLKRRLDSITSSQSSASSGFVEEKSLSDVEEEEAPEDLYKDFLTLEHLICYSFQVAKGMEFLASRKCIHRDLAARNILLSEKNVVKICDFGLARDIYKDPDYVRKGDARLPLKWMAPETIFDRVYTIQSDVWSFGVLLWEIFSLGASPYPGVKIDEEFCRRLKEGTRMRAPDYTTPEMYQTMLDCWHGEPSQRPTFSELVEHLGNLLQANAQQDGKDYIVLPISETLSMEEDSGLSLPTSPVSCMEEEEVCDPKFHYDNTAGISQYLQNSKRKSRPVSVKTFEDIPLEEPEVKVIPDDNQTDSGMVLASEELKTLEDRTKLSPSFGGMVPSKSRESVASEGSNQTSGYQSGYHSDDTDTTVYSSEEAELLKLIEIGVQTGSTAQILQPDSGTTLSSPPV
Experiment: Inhibition of recombinant human VEGFR2 using poly (Glu,Tyr)4:1 as substrate incubated for 60 mins by ELISA
Details: not given

IC50 [nM]	SMILES
366	COc1cc(OC)c(Cl)c(-c2ccc3c(NC(=O)c4ccc(N5CCN(C)CC5)cc4)n[nH]c3n2)c1Cl

Tested on: NCI-H1581
Experiment: Antiproliferative activity against human NCI-H1581 cells after 72 hrs by CCK-8 assay
Assay type: functional, cell-based
Details: NCI-H1581, 72 h

IC50 [nM]	SMILES
191	COc1cc(OC)c(Cl)c(-c2ccc3c(NC(=O)c4ccc(N5CCN(C)CC5)c(Cl)c4)n[nH]c3n2)c1Cl
1.7	COc1cc(OC)c(Cl)c(-c2ccc3c(NC(=O)c4ccc(N5CCN(C)CC5)cc4)n[nH]c3n2)c1Cl
525	COc1cc(N2CCN(C)CC2)ccc1C(=O)Nc1n[nH]c2nc(-c3c(Cl)c(OC)cc(OC)c3Cl)ccc12
245	COc1cc(OC)c(Cl)c(-c2ccc3c(NC(=O)c4ccc(N5CCN(S(C)(=O)=O)CC5)cc4)n[nH]c3n2)c1Cl

The remaining lines, values behind:

SMILES	IC50 [nM]
COc1cc(OC)c(Cl)c(-c2ccc3c(NC(=O)c4ccc(N5CCN(C)CC5)nc4)n[nH]c3n2)c1Cl	1.5
COc1cc(OC)c(Cl)c(-c2ccc3c(NC(=O)c4ccc(N5CCN(C)CC5)s4)n[nH]c3n2)c1Cl	3.7
COc1cc(OC)c(Cl)c(-c2ccc3c(NC(=O)c4ccccc4)n[nH]c3n2)c1Cl	> 1000
CCN1CCN(c2ccc(C(=O)Nc3n[nH]c4nc(-c5c(Cl)c(OC)cc(OC)c5Cl)ccc34)cc2)CC1	0.7
